Experimental data from patent publication US6124334A, “Hetero-aromatic ring substituted phenyloxazolidinone antimicrobials” (Pharmacia & Upjohn Company, priority 1998, dated 2000).
≈ marks a conversion by molar mass, not a printed value. Where “and” joins values, the source holds several entries; their conditions need not be identical. Equal entries are not always repeated.

What was measured:
S. pneumoniae, UC ®9912 = experiment: In vitro MIC by agar dilution, S. pneumoniae; assay type: cell-based; conditions: Streptococcus pneumoniae, UC9912, read-out: In vitro Activities: Minimum Inhibitory Concentrations, S. pneumoniae, UC 9912
Description: The oxazolidinone antibacterial agents of this invention have useful activity against a variety of organisms. The in vitro activity of compounds of this invention can be assessed by standard testing procedures such as the determination of minimum inhibitory concentration (MIC) by agar dilution as desribed in "Methods for Dilution Antimicrobial Susceptibility Tests for Bacteria That Grow Aerobically" (MFT) published January 1983 by the National Committee for Clinical Laboratory Standards, 771 East Lancaster Avenue, Villanova, Pa. 19084, USA. The activity of selected compounds of this invention against Staphylococcus aureus and Streptococcus pneumoniae are shown in Table 1.

S. aureus, UC ®9213 = experiment: In vivo Murine Assay procedure, ED50 (survival of infected mice); parameters: species or system Staphylococcus aureus; female mice
Description: Antimicrobial activity was tested in vivo using the Murine Assay procedure. Groups of female mice (six mice of 18-20 grams each) were injected intraperitoneally with bacteria which were thawed just prior to use and suspended in brain heart infusion with 4% brewers yeast UC9213 (Staphylococcus aureus) or brain heart infusion (Streptococcus species). Antibiotic treatment at six dose levels per drug was administered one hour and five hours after infection by either oral intubation or subcutaneous ("subcut.") routes. Survival was observed daily for six days. ED50 values based on mortality ratios were calculated using probit analysis. The subject compounds were compared against a well-known antimicrobial (Vancomycin) as a control.

In the case of `CN[C@H](CC(C)C)C(=O)N[C@H]1C(=O)N[C@@H](CC(N)=O)C(=O)N[C@H]2C(=O)N[C@H]3C(=O)N[C@H](C(=O)N[C@H](C(=O)O)c4cc(O)cc(O)c4-c4cc3ccc4O)[C@H](O)c3ccc(c(Cl)c3)Oc3cc2cc(c3O[C@@H]2O[C@H](CO)[C@@H](O)[C@H](O)[C@H]2O[C@H]2C[C@](C)(N)[C@H](O)[C@H](C)O2)Oc2ccc(cc2Cl)[C@H]1O` [Vancomycin], the MIC (S. pneumoniae, UC ®9912) is reported as 0.5 µg/mL (≈ 0.345 µM), the ED50 (S. aureus, UC ®9213; Staphylococcus aureus, UC9213, 144 h, read-out: Control, ED50) is reported as 2.2 mg/kg and the “Control, ED50” value (S. aureus, UC ®9213; vancomycin control run beside the Example of the same line, mice infected i.p. with S. aureus UC 9213, treatment 1 h and 5 h after infection, oral or subcutaneous, 8640 min) is reported as 2.4 mg/kg and 2.0 mg/kg and 1.2 mg/kg.
